Values quoted from earlier work, collected in patent US20250375533A1, “Sublingual Formulation of Anticancer Compound for Use in the Treatment of Autoimmune Neurodegenerative Diseases” (Vektor Pharma TF GmbH, priority 2022, published 2025).
Where two headings read alike, the source gives them in different places.

Assays:
[1] = 37° C.
[2] = pH 1.4 solution; for active substance maintained: with cyclodextrins
[3] = oral solution without HPβCD
[4] = administered rectally
[5] = saliva
[6] = tested on: Clostridium perfringens; conditions: Clostridium perfringens culture
[7] = tested on: Escherichia coli; conditions: Escherichia coli culture
[8] = tested on: whole feces
[9] = tested on: Bacteroides fragilis
[10] = tested on: Enterococcus faecalis
[11] = molecular target: BCRP (ABCG2) transporter proteins (Homo sapiens, UniProt Q9UNQ0)
Chain of BCRP (ABCG2) transporter proteins (Q9UNQ0 whole entry): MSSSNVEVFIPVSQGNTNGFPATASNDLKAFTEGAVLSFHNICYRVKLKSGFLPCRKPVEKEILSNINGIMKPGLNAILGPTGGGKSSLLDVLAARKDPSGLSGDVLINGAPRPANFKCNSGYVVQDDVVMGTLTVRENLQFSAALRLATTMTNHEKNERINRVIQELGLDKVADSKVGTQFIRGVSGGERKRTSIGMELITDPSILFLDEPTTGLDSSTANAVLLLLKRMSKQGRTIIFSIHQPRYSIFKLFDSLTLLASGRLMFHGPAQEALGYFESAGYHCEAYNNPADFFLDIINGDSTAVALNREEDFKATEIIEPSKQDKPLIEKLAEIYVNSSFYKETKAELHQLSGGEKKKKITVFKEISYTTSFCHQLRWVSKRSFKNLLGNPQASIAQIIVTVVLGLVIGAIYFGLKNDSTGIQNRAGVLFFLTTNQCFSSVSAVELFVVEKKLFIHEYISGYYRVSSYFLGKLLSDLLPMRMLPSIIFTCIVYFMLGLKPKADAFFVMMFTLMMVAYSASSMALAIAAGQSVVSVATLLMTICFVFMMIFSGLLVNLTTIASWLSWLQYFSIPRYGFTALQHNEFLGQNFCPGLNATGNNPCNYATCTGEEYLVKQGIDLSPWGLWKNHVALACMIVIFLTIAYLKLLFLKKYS

[12] = in vivo

For Nc1nc(Cl)nc2c1ncn2[C@H]1C[C@H](O)[C@@H](CO)O1 [cladribine, 2-chloro-2′-deoxyadenosine], the “tin value of cladribine” value ([1]; pH 1.0 solutions) is given as 0.37 h, the “tin value of cladribine” value ([1]; pH 2.0 solutions) is given as 1.6 h and the “active substance remained in solution” value ([2]; absence of cyclodextrins, after 8 hours) is given as 15%. The active substance lost ([2]; absence of cyclodextrins, after about 3 hours) was “about 50%”, the active substance maintained ([2]; 8 hours) was “approximately 70%” and the active substance maintained ([2]; almost 5 hours) was “more than 80%”. The “bioavailability after oral administration” value [3] was 35.3%, the bioavailability [4] was 21% and the degradation [5] was “slowly or not at all”. For the same compound, the solubility in water was “slightly soluble”, the “degradation (deglycosylation to Cloroadenine)” value [6] was “rapidly deglycosylated” and the “degradation (deglycosylation to Cloroadenine)” value [7] was “rapidly deglycosylated”. For the same compound, the “degradation (deglycosylation to Cloroadenine)” value [8] was “rapidly deglycosylated”, the degradation [9] was “slowly or not at all” and the degradation [10] was “slowly or not at all”. For the same compound, the “substrate of BCRP (ABCG2) transporter proteins” value [11] was “substrate of BCRP”.

In the case of Nc1nc(Cl)nc2c1ncn2[C@H]1C[C@H](O)[C@@H](CO)O1 [Mavenclad], the “interpatient variability, CV %, AUC inf” value [12] is given as 29.2%, the “interpatient variability, CV %, AUC t” value [12] is given as 29.8% and the “interpatient variability, CV %, Cmax” value [12] is given as 43.0%.
